Structures are written as SMILES. Calls of active or inactive are those of the source. No cut-off for these calls is given here.

Series [1] can be described thus: Induction of singlet oxygen generation in PBS at 5 uM measured within 60 mins by DPBF-based singlet oxygen trapping method in presence of light. Format: physicochemical. The note with it: buffer, 1 h.
Series [2] can be described thus: Drug uptake in human HT1080 cells at 1 uM upto 24 hrs by flow cytometric analysis. Format: ADME, cell-based. The note with it: ht-1080, 24 h. For orientation: Flow cytometry measures light scatter and fluorescence of single cells or particles in a stream.
Series [3] is described as follows: Dark cytotoxicity against human HT1080 cells at 0.25 to 1 uM after 24 to 72 hrs by WST-1 assay. Format: cell-based. To be noted: ht-1080, 1 µM. For orientation: Tetrazolium dyes change colour on reduction, which living cells bring about.
Series [4] can be described thus: Dark cytotoxicity against human HT1080 cells at 2 to 10 uM after 24 to 72 hrs by WST-1 assay. Format: cell-based. The note with it: ht-1080, 10 µM.
Series [5] deals with HT-1080. Description: Photocytotoxicity against human HT1080 cells at 1 uM preincubated for 24 hrs followed by red LED irradiation for 20 mins measured after 24 to 72 hrs by WST-1 assay. Format: functional, cell-based.
The nature of series [6]: Drug uptake in human HT1080 cells at 1 uM upto 6 hrs by flow cytometric analysis. Format: ADME, cell-based. The note with it: ht-1080, 6 h.
Series [7] is described as follows: Induction of singlet oxygen generation in PBS at 5 uM measured within 5 to 10 mins by DPBF-based singlet oxygen trapping method in presence of light. Format: physicochemical. To be noted: buffer.
Series [8] can be described thus: Drug uptake in human HT1080 cells at 1 uM by flow cytometric analysis. Format: ADME, cell-based. The note with it: ht-1080, 1 µM, TDE = time-dependent effect.
In series [9] the test system is HT-1080. Description: Photocytotoxicity against human HT1080 cells at 1 uM preincubated for 24 hrs followed by red LED irradiation for 20 mins measured after 48 to 72 hrs by WST-1 assay. Format: functional, cell-based.
The nature of series [10]: Dark cytotoxicity against human HT1080 cells at 2 uM after 24 to 72 hrs by WST-1 assay. Format: cell-based. The note with it: ht-1080, 2 µM.
Series [11] in a line: Downregulation of BCL-2 mRNA expression in human HT1080 cells at 1 uM preincubated for 24 hrs followed by red LED irradiation for 20 mins measured after 0.5 to 24 hrs by RT-PCR analysis. Format: functional, cell-based. To be noted: HT-1080.
The subject of series [12] is HT-1080. Description: Increase in release of mitochondrial cytochrome c release in cytosolic extracts of human HT1080 cells at 1 uM preincubated for 24 hrs followed by red LED irradiation for 20 mins measured after 0.5 hrs by ELISA method. Format: functional, cell-based. For orientation: In an ELISA, binding on a coated surface is turned into a signal by an enzyme label.

Series [13] in a line: Upregulation of NQO1 mRNA expression in human HT1080 cells at 1 uM preincubated for 24 hrs followed by red LED irradiation for 20 mins measured upto 24 hrs by RT-PCR analysis. To be noted: HT-1080. Format: functional, cell-based.
Series [14] in a line: Drug uptake in mitochondria of human HT1080 cells at 1 uM incubated for 24 hrs by MitoTracker green dye based laser scanning confocal microscopy. Format: ADME. To be noted: ht-1080, 24 h.
For series [15], the system named is HT-1080. Description: Increase in release of mitochondrial cytochrome c release in cytosolic extracts of human HT1080 cells at 1 uM preincubated for 24 hrs followed by red LED irradiation for 20 mins measured after 3 hrs by ELISA method. Format: functional, cell-based.
Series [16] can be described thus: Upregulation of GPX1 mRNA expression in human HT1080 cells at 1 uM preincubated for 24 hrs followed by red LED irradiation for 20 mins measured after 3 to 24 hrs by RT-PCR analysis. Format: functional, cell-based. To be noted: HT-1080.
Series [17] in a line: Upregulation of SOD2 mRNA expression in human HT1080 cells at 1 uM preincubated for 24 hrs followed by red LED irradiation for 20 mins measured after 0.5 hrs by RT-PCR analysis relative to control. Format: functional, cell-based. To be noted: HT-1080.
Series [18] in a line: Upregulation of BAX mRNA expression in human HT1080 cells at 1 uM preincubated for 24 hrs followed by red LED irradiation for 20 mins measured after 0.5 to 24 hrs by RT-PCR analysis. Format: functional, cell-based. To be noted: HT-1080.
The nature of series [19]: Upregulation of APAF1 mRNA expression in human HT1080 cells at 1 uM preincubated for 24 hrs followed by red LED irradiation for 20 mins measured after 0.5 to 24 hrs by RT-PCR analysis. Format: functional, cell-based. To be noted: HT-1080.
Series [20] in a line: Induction of necrosis in human HT1080 cells at 1 uM preincubated for 24 hrs measured after 6 hrs by Annexin V Alexa Fluor and PI staining based flow cytometry. Format: cell-based. The note with it: ht-1080, 6 h.
The subject of series [21] is HT-1080. Kind of series: Induction of necrosis in human HT1080 cells at 1 uM preincubated for 24 hrs followed by red LED irradiation for 20 mins measured after 6 hrs by Annexin V Alexa Fluor and PI staining based flow cytometry. Format: functional.
Series [22] is described as follows: Upregulation of TP-53 mRNA expression in human HT1080 cells at 1 uM preincubated for 24 hrs followed by red LED irradiation for 20 mins measured after 3 hrs by RT-PCR analysis. Format: functional, cell-based. The note with it: HT-1080.
The nature of series [23]: Upregulation of GPX1 mRNA expression in human HT1080 cells at 1 uM preincubated for 24 hrs followed by red LED irradiation for 20 mins measured after 0.5 hrs by RT-PCR analysis relative to control. Format: functional, cell-based. To be noted: HT-1080.
Series [24] has as its system HT-1080. Description: Induction of reactive oxygen species generation in human HT1080 cells assessed as increase in integrated median fluorescence intensity at 1 uM preincubated for 24 hrs followed by red LED irradiation for 20 mins measured after 1 min by DCFH-DA probe based flow cytometry relative to control. Format: functional.
Series [25] can be described thus: Upregulation of NQO1 mRNA expression in human HT1080 cells at 1 uM preincubated for 24 hrs followed by red LED irradiation for 20 mins measured after 0.5 hrs by RT-PCR analysis relative to control. Format: functional, cell-based. To be noted: HT-1080.
Series [26] relates to HT-1080. Description: Induction of reactive oxygen species generation in human HT1080 cells at 1 uM preincubated for 24 hrs followed by red LED irradiation for 20 mins measured upto 15 mins by DCFH-DA probe based flow cytometry. Format: functional, cell-based.
The nature of series [27]: Induction of apoptosis in human HT1080 cells at 1 uM preincubated for 24 hrs measured after 6 hrs by Annexin V Alexa Fluor and PI staining based flow cytometry. Format: cell-based. The note with it: ht-1080, 6 h.
For series [28], the system named is HT-1080. Description: Induction of DNA damage in human HT1080 cells at 1 uM preincubated for 24 hrs followed by red LED irradiation for 20 mins measured after 30 mins by ARP probe based flow cytometry. Format: functional, cell-based.
Series [29] relates to HT-1080. Description: Photocytotoxicity against human HT1080 cells at 1 uM preincubated for 24 hrs followed by red LED irradiation for 20 mins measured after 72 hrs by WST-1 assay. Format: functional, cell-based.

With `CC1(C)C(/C=C2/C(=O)C(/C=C3\Nc4ccccc4C3(C)C)=C2O)=Nc2ccccc21`, the Activity result in series [1] was “Active”; in [3], “Non-toxic”; in series [4], “Dose-dependent effect”. Also, the Drug uptake entry in series [2] is recorded as “Active”. The result with HT-1080 [5] was inactive.

For the molecule `CC1(C)C(/C=C2/C(=O)C(/C=C3\Nc4ccc(Br)cc4C3(C)C)=C2O)=Nc2ccc(Br)cc21`, the figures for the Activity result in [3], in series [4] and in [7] were “Non-toxic”, “Dose-dependent effect” and “Active”, respectively. In addition, the Drug uptake entry in [6] is on record as “Active”. The outcome with HT-1080 [5] was inactive.

As to `CCN1/C(=C/C2=C([O-])C(=C\C3=[N+](CC)c4ccc(Br)cc4C3(C)C)/C2=O)C(C)(C)c2cc(Br)ccc21`, the Drug uptake result in series [8] is given as “tde”. Also, the outcome in the series with HT-1080 [9] was Active. Further, the Activity entry in [3] is on record as “Non-toxic”; in series [4] it was “Dose-dependent effect”; in series [7], “Active”; in series [10], “Non-toxic”.

`CCCCN1/C(=C/C2=C([O-])C(=C\C3=[N+](CCCC)c4ccc(I)cc4C3(C)C)/C2=O)C(C)(C)c2cc(I)ccc21`: the outcome (in series [11]; in the series with HT-1080 [12]; in the series on HT-1080 [28]; in the series with HT-1080 [5]) was Active. Besides, the result (in [13]; with HT-1080 [15]; in [16]; in series [18]; in series [19]; in series [22]) was inactive. In addition, the result with HT-1080 [26] was inactive. The values for the Drug uptake entry in series [14] and in [8] were “Active” and “tde”, respectively. Besides, the fold change (FC) in [17] worked out at 5.21; in series [23], 54.6; in the series with HT-1080 [24], 32; in series [25], 5.56. Also, the Activity entry in series [20] is given as “Non-toxic”; in the series with HT-1080 [21], 83%; in series [3], “Non-toxic”; in series [4], “Dose-dependent effect”; in series [27] it was “Non-toxic”; in series [7], “Active”. The Activity entry in [10] is listed as “Non-toxic”.

`CC1(C)C(/C=C2/C(=O)C(/C=C3\Nc4ccc(I)cc4C3(C)C)=C2O)=Nc2ccc(I)cc21`: in the series on HT-1080 [29], the outcome was Active. For the same molecule, the Activity result was “Non-toxic” in series [3], “Dose-dependent effect” in series [4] and “Active” in series [7]. Besides, the Drug uptake result in series [6] is given as “Active”.

For the molecule `CCN1/C(=C/C2=C([O-])C(=C\C3=[N+](CC)c4ccc(I)cc4C3(C)C)/C2=O)C(C)(C)c2cc(I)ccc21`, in series [8], the Drug uptake entry is listed as “tde”. Besides, the Activity entry in [3] is listed as “Non-toxic”; in series [4] it was “Dose-dependent effect”; in series [7], “Active”. In addition, the outcome in the series on HT-1080 [5] was inactive.

Consider `CCCCN1/C(=C/C2=C([O-])C(=C\C3=[N+](CCCC)c4ccc(Br)cc4C3(C)C)/C2=O)C(C)(C)c2cc(Br)ccc21`, for which the outcome (in series [11]; in the series with HT-1080 [12]; in [22]; in the series on HT-1080 [28]; in the series with HT-1080 [5]) was Active. Moreover, the result (in series [13]; in the series with HT-1080 [15]; in [16]; in series [17]; in series [18]; in series [19]) was inactive. Also, the result in the series on HT-1080 [26] was inactive. Besides, the Drug uptake entry in [14] was “Active”; in [8] it was “tde”. Also, the Activity entry in series [20] is listed as “Non-toxic”; with HT-1080 [21], 81.9%; in series [3], “Non-toxic”; in series [4], “Dose-dependent effect”; in [27], “Non-toxic”; in [7], “Active”. For the same molecule, the Activity result in [10] is given as “Non-toxic”. The fold change (FC) in series [23] came out at 34.6; in the series on HT-1080 [24], 15.32; in [25] it was 3.39.

These data come from ChEMBL document CHEMBL3779793, “Squaraines bearing halogenated moieties as anticancer photosensitizers: Synthesis, characterization and biological evaluation” (Eur J Med Chem, 2016).
